According to patent US7226947B1, “Use of creatine as a fat substitute” (AlzChem Trostberg GmbH, priority 1999, dated 2007):

Tested on: growing hens
Experiment: Effect of addition of creatine in the feed for growing hens
Type: in vivo
Conditions: 0.2% creatine (0.2 g/kg) added to air-dried feed, growing period of 41 days
Excerpt: The effect of addition of creatine in the feed for growing hens was studied. It was found here that by adding 0.2% creatine […] to the air-dried feed for a growing period of 41 days, an increase in the final weight of 4% compared with previous feeding methods (without creatine addition) was achieved. […] The feed consumption decreased here by about 2–3% in comparison with previous feeding methods.

Structure (SMILES): CN(CC(=O)O)C(=N)N [creatine]
- decrease in feed consumption in comparison with previous feeding methods: 2–3%
- increase in the final weight compared with previous feeding methods (without creatine addition): 4%
- meat quality: improved quality
- nature of the increase in weight (meat vs fat; lean body mass index): only by increase in meat, but not by increase in fat
